PMC11270681, “Synthesis and Systematic Investigation of Lepidiline A and Its Gold(I), Silver(I), and Copper(I) Complexes Using In Vitro Cancer Models and Multipotent Stem Cells” (ACS Omega, 2024)
pIC50: −log10 of the molar value. Values joined by “and” are separate entries in the source; they are usually repeats but may differ in a detail not shown here. Equal entries are not always repeated.

How the values were obtained:
[1] = test system: Bone marrow MSCs (BM-MSC); experiment: Cytotoxicity, range over bone marrow MSCs; assay type: cell-based; conditions: BM-MSC and immortalized BM-MSC
Method: (§1) OVCAR-3 (OVC-3) and OVCAR-8 (OVC-8) ovarian serous adenocarcinomas, IGROV-1 ovarian endometrioid adenocarcinoma, OVCAR-5 (OVC-5) upper gastrointestinal carcinoma, MDA-MB-231 breast adenocarcinoma, and MCF-7 and T-47D invasive breast carcinomas were purchased from the Developmental Therapeutic Program of the National Cancer Institute (NIH, USA) and were cultured in an RPMI medium (Thermo Fisher). Mes-Sa and Mes-Sa/Dx5 uterine sarcoma cell lines were purchased from American Type Culture Collection (ATCC) and were kept in DMEM (Thermo Fisher). Mes-Sa B1 was transfected with the human MDR1 gene, and Mes-Sa mCherry, Mes-Sa B1 mOrange, and Mes-Sa/Dx5 eGFP were engineered to stably express the respective fluorescent proteins previously.[51] Culture media for cancer cells were supplemented with 10% fetal bovine serum, 2 mM L-glutamine, and 100 units/mL penicillin and 100 μg/mL streptomycin (Thermo Fisher). The adipose tissue and bone marrow-derived mesenchymal stem cells (AD-MSC and BM-MSC) were described previously[37] and were kept in DMEM-F12 (Gibco) supplemented with 10% fetal bovine serum, L-glutamine (Thermo Fisher), 0.1% gentamicin (Gibco, 50 mg/mL), and 16 ng/mL fibroblast growth factor 2 (Peprotech). Cells were kept at 37 °C under 5% CO2 and were negative for mycoplasma infection.
(§2) Cytotoxicities of the nonfluorescent cancer cells were assessed with a PrestoBlue cell viability reagent (Thermo Fisher). Briefly, 2500 cells/well were seeded on 384-well plates; then, the next-day drugs were added. After 72 h of incubation, PrestoBlue was added in a 10% final concentration, and after an hour of additional incubation, plates were measured with a PerkinElmer EnSpire plate reader at 555 nm/585 nm excitation/emission wavelengths. Stem cells were seeded on 96-well plates at a density of 5000 cells/well, and the following day, drugs were added for 96 h of incubation; then, viability was assessed with 10% PrestoBlue diluted in PBS. Fluorescent cancer cells were admixed before seeding on 384-well plates at an 800 cells/well density each, thus altogether 2400 cells/well. Drugs were added the following day, and the intensity of the fluorescent proteins was measured after 144 h of incubation at the respective fluorescent channels (excitation/emission, eGFP: 485 nm/510 nm; mCherry: 585 nm/610 nm; mOrange: 545 nm/567 nm). pIC50 values were calculated by a custom program written by Judit Sessler in C#. IC50 values and standard deviation were calculated from average pIC50 values from at least 3 independent measurements.

[2] = test system: panel of cancer cell lines of various origins; design: method as in PMID 12932133; conditions: up to 10 μg/mL (approximately 60 μM for lepidiline A); cited from earlier work
im. BM-MSC = experiment: Cytotoxicity (PrestoBlue), immortalized bone marrow MSC; assay type: cell-based; conditions: 96 h incubation
Method: as §1, §2

MDA-MB-231 = experiment: Cytotoxicity (PrestoBlue), breast cancer line; assay type: cell-based; conditions: MDA-MB-231, 72 h incubation
Method: as §1, §2

T-47D [3] = experiment: Cytotoxicity (PrestoBlue), breast cancer line; assay type: cell-based; conditions: 72 h incubation
Method: as §1, §2

MCF-7 [4] = experiment: Cytotoxicity (PrestoBlue), breast cancer line; assay type: cell-based
Method: as §1, §2

AD-MSC = experiment: Cytotoxicity (PrestoBlue), adipose-derived mesenchymal stem cells; assay type: cell-based; conditions: 96 h incubation
Method: as §1, §2

Mes-Sa/Dx5 = experiment: Cytotoxicity, doxorubicin-selected MDR uterine sarcoma line; assay type: cell-based; conditions: Mes-Sa/Dx5 (doxorubicin selected, ABCB1 expressing), fluorescent protein intensity after 144 h
Method: as §1, §2

Mes-Sa [5] = experiment: H2DCFDA intracellular ROS production assay; assay type: cell-based; conditions: 50 μM, 4 h incubation
Method: (§3) To assess intracellular ROS production, we used a H2DCFDA cellular ROS assay kit (ab113851, Abcam) according to the manufacturer’s instructions. Briefly, 20,000 cells were seeded on 96-well plates. On the following day, cells were washed, and H2DCFDA solution, prepared by avoiding direct light, was added for 45 min. Next, cells were washed, and 50 μM samples of test compounds were aspirated on the cells in a complete and phenol red-free medium (FluoroBrite, Thermo Fisher). At each hour, fluorescence of 2′,7′-dichlorofluorescein (DCF) was measured at 484 nm/535 nm excitation/emission wavelengths. Values were normalized to 0 h measurements. Values indicate at least 3 independent measurements.

T-47D [6] = experiment: H2DCFDA intracellular ROS production assay; assay type: cell-based; conditions: 50 μM, 4 h incubation
Method: as §3

MCF-7 [7] = experiment: H2DCFDA intracellular ROS production assay; assay type: cell-based; conditions: MCF-7, 50 μM, 4 h incubation
Method: as §3

Mes-Sa B1 = experiment: Cytotoxicity, MDR1-transfected uterine sarcoma line; assay type: cell-based; conditions: Mes-Sa B1 (MDR1 transfected, ABCB1 expressing), fluorescent protein intensity after 144 h
Method: as §1, §2

OVC-5 = experiment: Cytotoxicity (PrestoBlue), upper gastrointestinal cancer line; assay type: cell-based; conditions: for pIC50: OVC-5, 72 h incubation, PrestoBlue
Method: as §1, §2

Mes-Sa [8] = experiment: Cytotoxicity, uterine sarcoma parental line; assay type: cell-based; conditions: fluorescent protein intensity after 144 h
Method: as §1, §2

BM-MSC = experiment: Cytotoxicity (PrestoBlue), bone marrow-derived mesenchymal stem cells; assay type: cell-based; conditions: 96 h incubation
Method: as §1, §2

HL-60 leukemia line = test system: HL-60 leukemia line; design: method as in PMID 34808062; conditions: cited from earlier work
[9] = test system: 3 ovarium cancer lines (IGROV-1, OVC-3, and OVC-8); experiment: Cytotoxicity, range over 3 ovarium cancer lines; assay type: cell-based; conditions: IGROV-1, OVC-3, OVC-8
Method: as §1, §2

OVC-3 = experiment: Cytotoxicity (PrestoBlue), ovarian cancer line; assay type: cell-based; conditions: OVC-3, 72 h incubation
Method: as §1, §2

IGROV-1 = experiment: Cytotoxicity (PrestoBlue), ovarian cancer line; assay type: cell-based; conditions: IGROV-1, 72 h incubation
Method: as §1, §2

OVC-8 = experiment: Cytotoxicity (PrestoBlue), ovarian cancer line; assay type: cell-based; conditions: OVC-8, 72 h incubation
Method: as §1, §2

MSCs = experiment: Cytotoxicity, range over MSCs; assay type: cell-based; conditions: AD-MSC, BM-MSC, immortalized BM-MSC
Method: as §1
(§4) Cytotoxicities of the nonfluorescent cancer cells were assessed with a PrestoBlue cell viability reagent (Thermo Fisher). Briefly, 2500 cells/well were seeded on 384-well plates; then, the next-day drugs were added. After 72 h of incubation, PrestoBlue was added in a 10% final concentration, and after an hour of additional incubation, plates were measured with a PerkinElmer EnSpire plate reader at 555 nm/585 nm excitation/emission wavelengths. Stem cells were seeded on 96-well plates at a density of 5000 cells/well, and the following day, drugs were added for 96 h of incubation; then, viability was assessed with 10% PrestoBlue diluted in PBS. […] IC50 values and standard deviation were calculated from average pIC50 values from at least 3 independent measurements.

cancer lines = experiment: Cytotoxicity, range over cancer lines; assay type: cell-based; conditions: all cancer lines tested; read-out: IC50 range over cancer lines
Method: as §1, §4

[10] = Stability in serum-free culture medium by HPLC-UV; assay type: physicochemical; conditions: for AUC (HPLC-UV), single measurements 1-5 / AUC (HPLC-UV), average: serum-free culture medium
Method: Stability of the metal complexes in solution was measured in serum-free culture medium. The compounds were dissolved in DMSO right before the experiment. Solutions of Cu-LA and Ag-LA contained 1% final volume of DMSO, while Au-LA contained 30% DMSO. Samples were taken right after dilution, and after 1 h, 2 h, 4 h, 8 h, 16 h, 32 and 48 h, and measured by HPLC-UV.

[11] = test system: 3 breast cancer cell lines (MDA-MB-231, MCF-7 and T-47D); experiment: Cytotoxicity, range over 3 breast cancer cell lines; assay type: cell-based; conditions: MDA-MB-231, MCF-7, T-47D
Method: as §1, §2

MCF-7 breast cancer line = test system: MCF-7 breast cancer line; design: method as in PMID 34808062; conditions: cited from earlier work

SMILES: Cc1c(C)[n+](Cc2ccccc2)cn1Cc1ccccc1.[Cl-] [LA, 1,3-Dibenzyl-4,5-dimethyl-imidazol-1-ium-chloride]
- pIC50 ([1]; BMMSC): 4.01 to 4.32
- Toxicity against a panel of cancer cell lines [2]: low or no toxicity
- pIC50 (im. BM-MSC; BMMSC): 4.32
- pIC50 (MDA-MB-231; Homo sapiens): 4.04
- pIC50 (T-47D [3]; Homo sapiens, T47D): 4.79
- pIC50 (MCF-7 [4]; Homo sapiens, MCF7, MCF-7, 72 h incubation): 4.14
- pIC50 (AD-MSC; listed as Lepidiline A): 3.74
- pIC50 (AD-MSC; Mesenchymal stem cells, 96 h): 3.73
- pIC50 (Mes-Sa/Dx5; Homo sapiens, MES-SA/Dx5, 144 h): < 3.70
- Intracellular ROS production compared to the medium (Mes-Sa [5]): did not provoke extra ROS production
- Intracellular ROS production compared to the medium (T-47D [6]): did not provoke extra ROS production
- Intracellular ROS production compared to the medium (MCF-7 [7]): did not provoke extra ROS production
- pIC50 (Mes-Sa B1; Homo sapiens): < 3.70
- pIC50 (OVC-5): < 3.70
- Lower susceptibility of OVC-5 compared to the ovarian cancer lines (OVC-5; OVC-5 vs ovarian cancer lines): 4 fold
- pIC50 (Mes-Sa [8]; Homo sapiens): 4.56
- pIC50 (BM-MSC; BMMSC): 4.16
- pIC50 (HL-60 leukemia line): ~4.52
- pIC50 ([9]; Homo sapiens): 4.14 to 4.32
- pIC50 (OVC-3): 4.32
- pIC50 (IGROV-1; Homo sapiens): 4.22
- pIC50 (OVC-8): 4.24

SMILES: Cc1c(C)[n+](Cc2ccccc2)c(C)n1Cc1ccccc1 [lepidiline B, reference compound]
- Toxicity against a panel of cancer cell lines [2]: low or no toxicity
- pIC50 (HL-60 leukemia line): 5.42

SMILES: Cc1c(C)n(Cc2ccccc2)[c](=[Au][Cl])n1Cc1ccccc1 [Au-LA, Chloro-(1,3-dibenzyl-4,5-dimethyl-imidazol-2-ylidene)gold]
- pIC50 [1]: 4.80 to 5.24
- pIC50 (MSCs): 5.12 to 5.24
- pIC50 (im. BM-MSC): 5.24
- pIC50 (MDA-MB-231): 5.02
- pIC50 (T-47D [3]): 5.11
- pIC50 (MCF-7 [4]; MCF-7, 72 h incubation): 5.02
- pIC50 (AD-MSC): 5.24
- pIC50 (Mes-Sa/Dx5): 4.87
- pIC50 (cancer lines): 4.61 to 5.11
- More ROS compared to the medium (Mes-Sa [5]): ~50%
- AUC (HPLC-UV), single measurements 1-5 ([10]; 0 h): 700 and 697 and 698
- AUC (HPLC-UV), average ([10]; 0 h, Cu-LA, Ag-LA 1% DMSO, Au-LA 30% DMSO): 698
- AUC (HPLC-UV), average ([10]; 1 h): 677
- AUC (HPLC-UV), single measurements 1-5 ([10]; 1 h): 690 and 685 and 674 and 672 and 665
- AUC (HPLC-UV), average ([10]; 2 h): 643
- AUC (HPLC-UV), single measurements 1-5 ([10]; 2 h): 645 and 644 and 640 and 643
- AUC (HPLC-UV), average ([10]; 4 h): 606
- AUC (HPLC-UV), single measurements 1-5 ([10]; 4 h): 614 and 605 and 604 and 603
- AUC (HPLC-UV), average ([10]; 8 h): 456
- AUC (HPLC-UV), single measurements 1-5 ([10]; 8 h): 463 and 457 and 456 and 454 and 451
- AUC (HPLC-UV), average ([10]; 16 h): 351
- AUC (HPLC-UV), single measurements 1-5 ([10]; 16 h): 354 and 351 and 353 and 350 and 345
- AUC (HPLC-UV), average ([10]; 32 h): 177
- AUC (HPLC-UV), single measurements 1-5 ([10]; 32 h): 180 and 173 and 174 and 172 and 187
- AUC (HPLC-UV), average ([10]; 48 h): 141
- AUC (HPLC-UV), single measurements 1-5 ([10]; 48 h): 142 and 143 and 140 and 135
- Stability in serum-free culture medium ([10]; HPLC-UV, observed 48 h): decreased after 4 h
- pIC50 (Mes-Sa B1): 4.89
- pIC50 (OVC-5): 4.61
- pIC50 (Mes-Sa [8]): 5.04
- pIC50 (BM-MSC): 5.12
- pIC50 [11]: 4.92 to 5.24
- pIC50 [9]: 4.76 to 4.98
- pIC50 (OVC-3): 4.78
- pIC50 (IGROV-1): 4.98
- pIC50 (OVC-8): 4.90

SMILES: COc1cccc(C[n+]2cn(Cc3ccccc3)c(C)c2C)c1 [lepidiline C]
- pIC50 (MCF-7 breast cancer line): 4.12
- pIC50 (HL-60 leukemia line): ~4.52
